In experiment [1] the test system is C8161 (human melanoma) cells. In words: In vivo experimental metastasis mouse model. More on the design: species or system Nude mice (BALB/c-nude). Conditions: 200µg/100µℓ PBS intravenously twice per week (total 7 times); 4 weeks; vs PBS. The method, then: In vivo therapeutic efficacy of A_intact peptide was evaluated using experimental metastasis mouse model. The in vivo experimental metastasis model was constructed as described below.
Nude mice (BALB/c-nude, 6 weeks old, female) were obtained from Charles River Japan (Japan). C8161 (human melanoma) cells (8 x 10^5 cells in 100 µℓ PBS per mouse) were injected into the tail vein. Two days later, mice were randomized into control and treatment groups (n=5 per group) . Modified A_intact peptide (200µg/100µℓ PBS) or A_intact-Fc fusion protein (100µg/100µℓ PBS) were intravenously injected into each mouse twice per week (total 7 times). As a negative control, PBS (100µℓ/mouse) was injected. All animals were killed at 4 weeks after injection of cancer cells. Lung and liver were excised and fixed in 10% formalin for 24 h. Metastatic foci on the surface of lung and liver were counted.

The next experiment concerns SW480sub cells. As to the kind of experiment: Invasion assay (Matrigel-coated transwell, collagen type I chemoattractant) with peptide-treated SW480sub cells. It is filed as cell-based. As to conditions: for invasion reduced compared to the vehicle control: peptide 50 µM. As to the method:
SW480sub was subpopulation of SW480 having high in vitro invasion and in vivo metastasis ability. The effect of each peptide on colorectal cancer cell invasion was analyzed using the said SW480sub. SW480sub cells were mixed with each peptide, followed by pre-incubation for 30 minutes.
(§1) Particularly, the porous membrane of 24-well transwell plate (8 µm pore size; Costar, USA) was coated with 100 µℓ of matrigel (BD Biosciences, USA) diluted in serum free medium at the concentration of 250 µg/mℓ, which stood at room temperature for 1 hour for fixing. The lower part of the transwell plate was coated with 100 µℓ of collagen type I (Sigma) at the concentration of 20 µg/mℓ. The said collagen type I was used as a chemoattractant. 1×10^4 cells resuspended in serum free medium were distributed in the upper chamber of the said 24-well transwell plate, followed by culture at 37°C with 5% CO2 for 48 hours, during which the cells were induced to migrate from the upper chamber to the lower chamber. The non-migrated cells were eliminated from the surface of the upper chamber. […] The excessive crystal violet solution was washed off with distilled water. The selected area (×100) was photographed. The number of the cells migrated was counted from 5 different selected areas. Then, mean value and standard error were obtained.

For experiment [2], the system named is SW480 cells. In words: Invasion assay with peptide-treated SW480 cells. As to conditions: concentration not given. It is filed as cell-based. As to the method: as §1
SW480 colorectal cancer cells were treated with peptides originated from C12orf59, and effects of the peptids on invasion of the cells were analyzed.

Another experiment has as its system colorectal cancer cells. In words: Cellular survival rate of colorectal cancer cells measured by absorbance. It is filed as cell-based. Conditions: as in Example <3-2>. As to the method:
(§2) Particularly, 100 µℓ of poly-HEMA (Sigma) at the concentration of 12 mg/mℓ was loaded in 96-well plate, which stood in clean bench for 1 day, followed by drying. On the next day, the plate was coated with Poly-HEMA once again. Cells were distributed in the poly-HEMA coated plate by 100 µℓ/well (1×10^4 cells/well). At that time, serum-free medium was used. 6 days later, 10 µℓ of CCK-8 reagent (Dojindo cat. CK04-13) was added to each well, followed by reaction for 3 hours. Then, OD450 was measured.
In particular, a cellular survival rate was measured using absorbance in the same manner as in Example <3-2>.

The test system of experiment [3] is SW480 cells. As to the kind of experiment: Cell survivability under anchorage independent condition (poly-HEMA plate, CCK-8, OD450). It is filed as cell-based. Conditions: peptide 100 µg/mℓ, 6 days. As to the method: 6 days later, cell survivability was measured by colorimetric technique under the anchorage independent condition.
as §2

Experiment [4] relates to C8161 (human melanoma) cell line. As to the kind of experiment: Invasion assay with C8161 cells (Matrigel-coated Transwell). It is filed as cell-based. Conditions: 24 h. As to the method: Specifically, C8161 (human melanoma) cell line was cultured in DMEM containing 10% FBS, penicillin-streptomycin, L-glutamine, sodium pyruvate and glucose. C8161 cells (1 x 10^4) in the presence of the peptide were plated in serum-free medium on 24-well Transwell inserts (8 µm pore size; Costar, USA) coated with 25 µg of […] (BD Biosciences, USA). The underside of the insert was coated with 100 µℓ of collagen type I (Sigma) at the concentration of 5 µg/mℓ. […] The number of cells that had invaded was counted in five representative fields per insert. Then, mean value and standard deviation were obtained.

Residues, ends and D or L forms follow the SMILES beside them.

With `CC(=O)N[C@@H](CCC(=O)O)C(=O)N[C@@H](CCC(=O)O)C(=O)N[C@@H](CC(N)=O)C(=O)N[C@@H](CS)C(=O)NCC(=O)N[C@@H](CC(N)=O)C(=O)N1CCC[C@H]1C(=O)N[C@@H](CCC(=O)O)C(=O)N[C@@H](Cc1c[nH]cn1)C(=O)N[C@@H](CS)C(=O)N[C@@H](CC(C)C)C(=O)N[C@H](C(=O)N[C@H](C(=O)N[C@@H](CC(=O)O)C(=O)N[C@@H](Cc1c[nH]c2ccccc12)C(=O)N[C@H](C(=O)N[C@@H](Cc1c[nH]cn1)C(N)=O)C(C)C)[C@@H](C)O)[C@@H](C)O` [Modified A_intact peptide] (Ac-EENCGNPEHCLTTDWVH-NH2), in experiment [1], the “metastasis to the liver (metastatic nodules)” value was “inhibited” and the “metastasis to the lung (metastatic nodules)” value was “inhibited”.
For PCCISSCCLT [B_Cen], in the experiment with SW480sub cells, the “invasion reduced compared to the vehicle control” value is given as 33%.
As for PCCISSCCLTTDWVH [B_N-term], the “invasion of cells reduced by” value with SW480 cells [2] amounted to 55%. Also, the “effect on the survival of colorectal cancer cells” value in the experiment with colorectal cancer cells is “inhibitory effects on the survival of colorectal cancer cells in a concentration-dependent manner”.
As to SWRPQPCCISSCCLT [B_C-term1], in the experiment with SW480 cells [2], the “invasion of cells reduced by” value came out at 45%. The “effect on the survival of colorectal cancer cells” value in the experiment with colorectal cancer cells is “inhibitory effects on the survival of colorectal cancer cells in a concentration-dependent manner”. Also, the “invasion reduced compared to the vehicle control” value in the experiment on SW480sub cells worked out at 73%.
Regarding “SWRPQPCCISSCCLTTDWVH [B_intact, fragment of C12orf59 isoform 2 extracellular domain, 20 amino acids]”, in the experiment on SW480 cells [2], the “invasion of cells reduced by” value is on record as 47%. Further, the “invasion rate reduced compared to the control” value with SW480sub cells (peptide 43 µM) was 29%. Moreover, the “colorectal cancer cell invasion reduced by” value in the experiment on SW480sub cells (peptide 100 µg/mℓ, 48 hours) amounted to 90%. Further, the “cell survivability reduced by” value in the experiment on SW480 cells [3] was determined as 90%. Further, the “C8161 invasion reduced by” value in experiment [4] (30 µg/mℓ) is reported as 48%; in experiment [4] (100 µg/mℓ), 70%.

(Values after patent publication EP3069727B1, “PHARMACEUTICAL COMPOSITION FOR CANCER PREVENTION AND TREATMENT CONTAINING PEPTIDE ORIGINATED FROM C12ORF59 PROTEIN AS AN ACTIVE INGREDIENT” (Korea Research Institute of Bioscience and Biotechnology, priority 2015, dated 2018).)
